Results on 1 compound are retold here after paper PMC12525602, “Identification of Selective α-Glucosidase Inhibitors via Virtual Screening with Machine Learning” (Molecules, 2025).

The target of assay [1] is T1, α-glucosidase (Saccharomyces cerevisiae, UniProt P53341).
T1 construct: purchased Sigma-Aldrich Co. (St. Louis, MI, USA)
Kind of assay: biochemical. The class given is biochemical. On the procedure: To further investigate the inhibition kinetics of the candidate compounds, α-glucosidase activity was determined at different substrate concentrations. The Lineweaver-Burk expression method in Equation (1) was used to test the reaction of a series of compounds with the substrate pNαGP, and the values of maximum velocity (Vmax) and Michaelis-Menten constant (Km) were calculated.(1) 1/v=Km/Vmax1/[S]+1/Vmax where Vmax and Km are the maximum velocity of the enzyme and the Michaelis-Menten constant in the absence of inhibitor, respectively. [S] is the concentration of substrate and inhibitor.(2) Slope=Km/Vmax+Km/Vmax·KiI where v is the initial reaction rate, Vmax is the maximum initial reaction rate, [I] is the concentration of […], and Km is the Michaelis-Menten constant.

The target of assay [2] is T1, α-glucosidase. As to the kind of experiment: Fluorescence quenching experiment (Stern-Volmer). The format is binding. To be noted: for Kq (bimolecular quenching constant): given as number×10 with exponent 12. On the procedure:
The fluorescence quenching experiment was modified somewhat based on previous studies. Fluorescence was determined by titrating α-glucosidase (1.0 mL, 2 U/mL) with different concentrations of inhibited solutions (1.0 mL, 0–200 mM) and left to equilibrate for 5 min. […] Fluorescence burst analysis was performed based on the Stern-Volmer (3) equation.(3) F0/F=1+Kqτ0Q=1+KsvQ
F and F0 are the fluorescence intensities with and without inhibitor, respectively, Ksv is the Stern-Volmer bursting constant, Kq is the bimolecular bursting constant, and [Q] is the concentration of inhibitor.
When the bursting mode conforms to static bursting, the binding constant Ka and the number of binding sites for each enzyme can be calculated from Equation (4).(4) logF0−F/F=logKa+nlogQ
Ka is the binding constant and n is the number of binding sites.
The thermodynamic parameters ∆H, ∆S, and ∆G denote the change in heat, entropy, and free energy, respectively.

For assay [3], the target named is T1, α-glucosidase. Kind of assay: Synchronous fluorescence spectroscopy (RSQF). The format is binding. The protocol: Changes in the microenvironment of tyrosine (Tyr) and tryptophan (Trp) residue fluorophores were detected simultaneously. The excitation and emission wavelength intervals were set to 15 nm and 60 nm, respectively, and the synchronized fluorescence spectra from 260 to 320 nm were determined. The synchronized fluorescence burst ratio (RSFQ) was calculated as follows:(7) RSQF=1−F/F0

The subject of assay [4] is C57BL/6J mice. Kind of assay: In vivo starch digestion inhibition experiment (postprandial blood glucose). To be noted: normal mice, 10 mg/kg by gavage, 2 g/kg starch, 0-120 min; p < 0.001 versus controls. An excerpt:
After the in vitro validation, in order to further characterize the effect of the inhibitor on postprandial glycemic control, we performed in vivo characterization by gavage in mice. Eight-week-old male C57BL/6J mice (purchased from Beijing Huafukang Laboratory Animals, Beijing, China) were used for the experiments. The animal experimental procedures were approved by the Ethics Committee on Laboratory Animal Management and Welfare of Beijing Huafuqian Times Technology Co. Ltd. (Ethical Review Approval No. HYSD2023-04), and local and national ethical guidelines were strictly observed. All mice were placed in a controlled environment with a temperature of 25 °C, relative humidity of 60%, and a light/dark cycle of 12/12 h. Following overnight fasting, gastric intubation was performed on mice in the control group, acarbose group, […] group, […] group, […] group, and […] group. The control group received saline infusion to eliminate confounding factors during administration. […] The remaining groups each received a corresponding concentration (10 mg/kg) of the test compound dissolved in saline solution to evaluate inhibitor efficacy. 2 g/kg of starch was given after 5 min, and the […] at 0 min, 10 min, 20 min, 30 min, 40 min, 60 min, 90 min and 120 min.

SMILES strings stand for the structures.

T1 sequence (P53341 whole entry): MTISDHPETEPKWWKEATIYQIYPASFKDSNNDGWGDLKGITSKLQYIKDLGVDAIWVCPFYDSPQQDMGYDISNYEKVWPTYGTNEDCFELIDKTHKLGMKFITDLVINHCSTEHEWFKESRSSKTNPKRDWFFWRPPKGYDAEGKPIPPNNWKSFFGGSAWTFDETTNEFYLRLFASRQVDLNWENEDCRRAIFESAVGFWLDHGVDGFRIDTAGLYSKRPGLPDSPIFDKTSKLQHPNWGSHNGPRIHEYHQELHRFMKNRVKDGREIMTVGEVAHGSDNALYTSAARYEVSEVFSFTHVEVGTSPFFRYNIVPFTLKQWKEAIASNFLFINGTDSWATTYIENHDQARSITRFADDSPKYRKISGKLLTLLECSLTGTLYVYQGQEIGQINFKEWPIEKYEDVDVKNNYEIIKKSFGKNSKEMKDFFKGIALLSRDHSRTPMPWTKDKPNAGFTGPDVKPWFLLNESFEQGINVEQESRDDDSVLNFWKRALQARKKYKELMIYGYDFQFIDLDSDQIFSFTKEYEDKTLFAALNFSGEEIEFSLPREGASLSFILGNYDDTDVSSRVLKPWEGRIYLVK

`C[C@H]1O[C@H](O[C@H]2[C@H](O)[C@@H](O)[C@@H](O[C@H]3[C@H](O)[C@@H](O)C(O)O[C@@H]3CO)O[C@@H]2CO)[C@H](O)[C@@H](O)[C@@H]1N[C@H]1C=C(CO)[C@@H](O)[C@H](O)[C@H]1O` (some centres unmarked) [Acarbose, acarbose, reference compound]: the Type of inhibition entry in assay [1] is on record as “Mixed”. Further, the Vmax was 5.92±0.06 ×10-1µM/min in assay [1] ([I] […] μM); 6.18±0.04 ×10-1µM/min in assay [1] ([I] 500 μM); 5.90±0.03 ×10-1µM/min in assay [1] ([I] 1000 μM); 2.42±0.06 ×10-1µM/min in assay [1] ([I] 2000 μM); 5.96±0.06 ×10-1µM/min in assay [1] ([I] […]). Further, the “Ksv (quenching constant)” value in assay [2] (T 300.15 K) was 0.01 ±0.01 104 /M; in assay [2] (T 305.15 K), 0.02 ±0.01 104 /M. Moreover, the “n (number of binding sites)” value in assay [2] (T 300.15 K) is 1.04; in assay [2] (T 305.15 K), 0.98. The results for the “Kq (bimolecular quenching constant)” value in assay [2] (T 300.15 K) and in assay [2] (T 305.15 K) were 0.01 ×10^12 (M·S)-1 and 0.02 ×10^12 (M·S)-1, respectively. Moreover, the “RSQF values, Trp (Δλ = 60 nm) versus Tyr (Δλ = 15 nm)” value in assay [3] was “very low”. In assay [4], the “blood glucose area under the curve (AUC), total glycemic exposure” value is on record as “significantly reduced”.
